Experimental data as given in US8952013B2, “Controlled release sterile injectable aripiprazole formulation and method” (Otsuka Pharmaceutical Co., Ltd., priority 2003, dated 2015).

What was measured:
[1] = at room temperature; cited from earlier work
[2] = hygroscopicity: water content after storage in a dessicator; format: physicochemical; settings: after 24 hours inside a dessicator at 60° C. and a humidity of 100%
Experimental: Aripiprazole Anhydrous Crystals B employed in the present invention have low hygroscopicity. For example, Aripiprazole Anhydrous Crystals B employed in the present invention maintain a water content of 0.4% or less after 24 hours inside a dessicator set at a temperature of 60° C. and a humidity of 100%.
Well-known methods of measuring water content can be used as long as they are methods commonly used for measuring the water content of crystals. For example, a method such as the Karl Fischer method can be used.

| SMILES | aqueous solubility [1] [µg/mL] | water content [2] [%] |
| --- | --- | --- |
| O=C1CCc2ccc(OCCCCN3CCN(c4cccc(Cl)c4Cl)CC3)cc2N1 [Aripiprazole] | < 1 | – |
| O=C1CCc2ccc(OCCCCN3CCN(c4cccc(Cl)c4Cl)CC3)cc2N1 [Aripiprazole Anhydrous Crystals B, Aripiprazole] | – | ≤ 0.4 |
